# Measurements published in patent US10369129B2, “Long acting pharmaceutical composition of protease inhibitor” (TaiMed Biologics, Inc., priority 2016, dated 2019).
# How the values were obtained:
# HIV-1 protease = HIV-1 protease (Human immunodeficiency virus type 1 group M subtype B, UniProt P04585); format: cell-based; details: antiviral studies
# PI-resistant strains = experiment: cross-resistance studies against 63 PI-resistant strains; format: cell-based, HIV; details: compared with approved protease inhibitors
# laboratory-adapted virus = experiment: 48-week resistance selection study and site-directed mutagenesis in vitro; format: cell-based, HIV
# Experimental: A 48-week resistance selection study was performed by increasing the concentrations of TMB-607 against a laboratory-adapted virus in vitro.
# solubility = format: physicochemical
# HIV = details: cited from earlier work
smiles,measurement,setting,value
COC(=O)NC(C(=O)NCCCCC(CO)N(CC(C)C)S(=O)(=O)c1ccc(N)cc1)C(c1ccccc1)c1ccccc1 (stereo not drawn) [TMB-607],inhibiting the HIV-1 protease,HIV-1 protease,effective and selective
same,levels of reduced susceptibility,PI-resistant strains,lower levels of reduced susceptibility than any of approved Protease inhibitors (PIs)
same,mutations selected in the protease open reading frame,"laboratory-adapted virus; 48 weeks, increasing concentrations of TMB-607, laboratory-adapted virus in vitro",Four mutations in the protease open reading frame were selected
same,resistance conferred by single mutations,"laboratory-adapted virus; site-directed mutagenesis, in vitro",single mutations did not result in significant resistance
same,solubility,solubility,poor
same,protein binding-adjusted antiviral activity EC50,HIV,23 ng/mL
